According to paper PMC12661054, “The CIP2A-TOPBP1 axis facilitates mitotic DNA repair via MiDAS and MMEJ” (Nature Communications, 2025):

Assays:
TOPBP1 BRCT 7-8 = assay: Fluorescence polarisation, TOPBP1 BRCT 7-8; assay type: binding, human; details: peptide 100 nM, pH 7.5
Method: (§1) In vitro fluorescence polarisation
(§2) Fluorescein-labelled peptides corresponding to amino acids 1253-1267 or 1470-1483 of SLX4 incorporating pT1260 or pT1476 respectively, were incubated at a concentration of 100 nM at room temperature with increasing concentrations of TOPBP1 WT or mutant BRCT module variants[26] in 25 mM HEPES pH 7.5, 150 mM NaCl, 1 mM EDTA, 0.25 mM TCEP, 0.002% (v/v) Tween 20 in a black 96-well polypropylene plate. Additional experiments performed with dephosphorylated peptide were achieved though incubation with Lambda phosphatase supplemented with 1 mM MnCl2 to remove the phosphorylation on the peptide. Fluorescence polarisation was measured in a CLARIOstar multimode microplate reader. Binding curves were calculated assuming a single binding site with non-specific binding component, using Graphpad Prism10.2.3 (GraphPad Prism, RRID: SCR_002798). Binding affinities are presented as calculated values alongside the 95% CI values. The presented graphs represent data plotted with the non-specific binding component subtracted.

TOPBP1 BRCT 0-1-2 WT = target: T1, TOPBP1 BRCT 0-1-2 WT (Homo sapiens, UniProt Q92547); assay: Fluorescence polarisation, TOPBP1 BRCT0-1-2 WT; assay type: binding; details: GST-tagged TOPBP1 fragment, peptide 100 nM, pH 7.5
T1 construct: transformed with pGEX-6P-1 TOPBP1(BRCT0-2 1-290) WT and K155E, K250E and K155E/K250E mutant variants; GST (N); made in house; host or cells: E. coli BL21(DE3)
Method: E.coli BL21(DE3) cells were transformed with pGEX-6P-1 TOPBP1(BRCT0-2 1-290) WT and K155E, K250E and K155E/K250E mutant variants for protein expression. Cell pellets were resuspended in lysis buffer containing 25 mM HEPES pH 7.5, 200 mM NaCl and 0.5 mM TCEP supplemented with 50U Turbo DNase, disrupted by sonication, and the resulting lysate clarified by centrifugation at 36,000 x g for 60 min at 4 °C. The supernatant was applied to a 5 ml HiTrap GST column, then washed with buffer containing 50 mM HEPES pH 7.5, 1000 mM NaCl, 0.25 mM TCEP, before the retained protein was eluted by application of the lysis buffer supplemented with 20 mM glutathione. […]
as §1
Fluorescein-labelled peptides corresponding to amino acids 1253-1267 or 1470-1483 of SLX4 incorporating pT1260 or pT1476 respectively, were incubated at a concentration of 100 nM at room temperature with increasing concentrations of TOPBP1 WT or mutant BRCT module variants[26] in 25 mM HEPES pH 7.5, 150 mM NaCl, 1 mM EDTA, 0.25 mM TCEP, 0.002% (v/v) Tween 20 in a black 96-well polypropylene plate. […] Fluorescence polarisation was measured in a CLARIOstar multimode microplate reader. Binding curves were calculated assuming a single binding site with non-specific binding component, using Graphpad Prism10.2.3 (GraphPad Prism, RRID: SCR_002798). […]

TOPBP1 BRCT 4-5 = assay: Fluorescence polarisation, TOPBP1 BRCT 4-5; assay type: binding, human; details: peptide 100 nM, pH 7.5
Method: as §1, §2

RPE1 p53-/- cells = assay: Immunofluorescence foci, RPE1 p53-/- cells; assay type: cell-based, human
Method: Immunofluorescence microscopy […] For detection of micronuclei, cells were fixed in 250 mM HEPES pH 7.5, 0.1% Triton X-100, 4% PFA in PBS for 20 minutes at 4 °C. Coverslips were then incubated for 5 min in 1x PBS with three buffer changes followed by incubation with 0.5% Triton X-100/ PBS for 10 min at room temperature. Coverslips were then incubated for 5 minutes in 1x PBS with three buffer changes. For EdU detection coverslips were transferred to a humidified chamber and incubated in EdU click it reaction buffer containing Alexafluor 488 azide for 1 h at room temperature followed by three 5 min washes in 1x PBS. Coverslips were then incubated in 5% FBS/PBS for 1 h followed by overnight incubation at 4 °C with primary antibody diluted in 5% FBS/PBS. Coverslips were then washed 3 × 5 min in 1x PBS followed by 1 h incubation at room temperature in 5% FBS/PBS containing secondary antibodies. Coverslips were incubated a further three times for 5 min in 1x PBS. Coverslips were then mounted on superfrost microscopy slides using Vectashield mounting medium with DAPI (Vector laboratories, […]). […] Cells were fixed in […] for 15 min at room temperature, followed by 3 × 5 min washes in 1xPBS. Coverslips were then incubated in 0.5% Triton-X/PBS for 10 min at room temperature, followed by a further 3 × 5 min 1xPBS washes. Coverslips were then incubated in blocking buffer (2% BSA, 0.05% Tween-20) for 1 h at room temperature, followed by incubation in respective primary antibodies overnight at 4 °C. Coverslips were then washed 3x for 5 min in 1x PBS followed by incubation for 1 h at room temperature in blocking buffer containing secondary antibodies. Coverslips were then washed 3x for 5 min in 1x PBS and mounted with Vectashield PLUS antifade mounting medium with DAPI (Vector laboratories, […]). Images were acquired using a Zeiss Axio Observer Z1 MarianasTM Microscope attached with a CSU-SoRa spinning disk unit using either a Photometrics Kinetix sCMOS camera built by Intelligent Imaging Innovations (3i) or a Zeiss Axio Observer Z1 MarianasTM Microscope attached with a CSUX1 spinning disk unit and Hamamatsu Flash 4 CMOS camera built by Intelligent Imaging Innovations (3i) or using an Opera Phenix Plus high content imaging system (Revvity). In each case 405, 488 and 640 laser lines were used in addition to DAPI, GFP/FITC, iRFP/CY5 emission filters. Quantification was carried out using FIJI (ImageJ, RRID:SCR_003070) software, CellProfiler (Broad Institute), Harmony (Revvity) or using […] Microsystems). Images of mitotic cells were analysed in 3D with maximum Z projections used for representative images in the manuscript to assist with visualisation.For interphase cells 2D images were analysed.

[1] = tested on: HCT116-TOPBP1-mAID-Clover cells; assay: TOPBP1 degron assay, HCT116-TOPBP1-mAID-Clover cells; assay type: cell-based, human
Method: Immunofluorescence microscopy
(§3) For detection of EdU incorporation in mitosis and the analysis of recruitment of TOPBP1, CIP2A, MUS81, ERCC1, TOPBP1-mAID-Clover, eGFP tagged SLX4 and eGFP tagged Polθ in RPE1 p53^-/- FRT/TR and DLD1 BRCA2^-/-cells, respectively, cells were grown on 13 mm 1.5 thickness coverslips and treated as described. Subsequently cells were simultaneously fixed and permeabilised in PTEMF buffer (20 mM PIPES pH 6.8, 10 mM EGTA, 0.2% Triton X-100, 1 mM MgCl2 and 4% formaldehyde) for 10 minutes at room temperature. For detection of micronuclei, cells were fixed in 250 mM HEPES pH 7.5, 0.1% Triton X-100, 4% PFA in PBS for 20 minutes at 4 °C.
(§4) Quantification was carried out using FIJI (ImageJ, RRID:SCR_003070) software, CellProfiler (Broad Institute), Harmony (Revvity) or using Aivia (Leica Microsystems). Images of mitotic cells were analysed in 3D with maximum Z projections used for representative images in the manuscript to assist with visualisation.For interphase cells 2D images were analysed.

DLD1 BRCA2-/- cells = assay: Proliferation (Incucyte), DLD1 BRCA2-/- cells; assay type: cell-based, human; details: 5 µM ART558 + siSLX4, compared to siCIP2A; three independent experiments
Method: For proliferation analysis of DLD1 BRCA2^-/- cells after treatment with siRNA as indicated, 72 h post-transfection of the first pulse of siRNA, 1500 cells were seeded per well in a PhenoPlate 96-well optically clear tissue culture plate (Revvity, 6055302). […] The following day the media was aspirated and replaced with 200 µl of RPMI 1640 medium containing standard antibiotics, 10% FBS and 2 mM L-glutatmine.
To analyse cellular proliferation of DLD1 BRCA2^-/- or SUM149PT BRCA1^-/-cells expressing a minimal SLX4 T1260 containing fragment, 1500 cells were seeded per well in a PhenoPlate 96-well optically clear tissue culture plate (Revvity, 6055302). […] The following day the medium was aspirated and replaced with 200 µl of RPMI 1640 medium containing standard antibiotics, 10% FBS and 2 mM L-glutatmine (DLD1 BRCA2^-/- SLX4 T1260 fragment cells or empty vector control expressing) or S Ham’s F-12 medium supplemented with 5% FBS, 10 μg/mL insulin, 0.5 μg/mL hydrocortisone and penicillin/streptomycin antibiotics for SUM149PT BRCA1^-/- (SLX4 T1260 fragment or empty vector control expressing) containing 1 µg/ml doxycycline.

RPE1 p53-/- FRT/TR cells = assay: Micronuclei formation, RPE1 p53-/- FRT/TR cells; assay type: cell-based, human; details: 5 µM ART558, 18 h, with 400 nM aphidicolin, three independent experiments
Method: as §3
Coverslips were then incubated for 5 min in 1x PBS with three buffer changes followed by incubation with 0.5% Triton X-100/ PBS for 10 min at room temperature. Coverslips were then incubated for 5 minutes in 1x PBS with three buffer changes. […]
as §4

T1 sequence (Q92547 1-290): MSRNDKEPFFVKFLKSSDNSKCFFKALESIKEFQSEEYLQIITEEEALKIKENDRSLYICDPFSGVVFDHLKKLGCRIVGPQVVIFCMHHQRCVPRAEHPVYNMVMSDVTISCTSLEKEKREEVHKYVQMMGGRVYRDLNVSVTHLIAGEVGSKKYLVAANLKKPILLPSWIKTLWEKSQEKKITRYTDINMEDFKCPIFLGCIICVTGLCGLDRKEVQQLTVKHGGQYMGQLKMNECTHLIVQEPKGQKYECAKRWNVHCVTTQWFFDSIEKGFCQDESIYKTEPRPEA

## ‘Flu’-GYGSPGLLDT(pT)PIRGSCT [SLX4 pT1476, Fluorescein-labelled peptide corresponding to amino acids 1470-1483 of SLX4 incorporating pT1476]
TOPBP1 BRCT 7-8
  interaction with TOPBP1 BRCTs 7-8: no interaction was detected
TOPBP1 BRCT 0-1-2 WT
  interaction with TOPBP1 BRCTs 0-1-2: did not bind
TOPBP1 BRCT 4-5
  interaction with TOPBP1 BRCTs 4-5: no interaction was detected

## C[C@@]1(CO)[C@H](O)CC[C@@]2(C)[C@H]1CC[C@H]1C[C@@H]3C[C@@]12CC[C@]3(O)CO [aphidicolin]
RPE1 p53-/- cells; 400 nM aphidicolin 18 h, nocodazole 60 ng/ml 2 h, RPE1 p53-/- FRT/TR WT, three experiments
  CIP2A–γH2AX colocalising foci in mitosis: striking increase in CIP2A–γH2AX colocalising foci in mitosis
RPE1 p53-/- cells; 400 nM aphidicolin 18 h, nocodazole 60 ng/ml 2 h, RPE1 p53-/- FRT/TR, two experiments (peer review file Fig. R1B)
  RAD9 TOPBP1 colocalising foci: increase in response to aphidicolin treatment
RPE1 p53-/- cells; 400 nM aphidicolin 18 h, nocodazole 60 ng/ml 2 h, RPE1 p53-/- SLX4-/- + eGFP-SLX4 WT, three independent experiments
  WT SLX4 recruitment to prometaphase chromatin, colocalised with CIP2A: recruited to prometaphase chromatin in response to replicative stress induced by aphidicolin and colocalised with CIP2A
RPE1 p53-/- cells; 400 nM aphidicolin 18 h, nocodazole 60 ng/ml 2 h, RPE1 p53-/- WT, three experiments
  colocalisation between CIP2A and FANCD2 foci on mitotic chromatin: detected colocalisation between CIP2A and FANCD2 foci on mitotic chromatin
RPE1 p53-/- cells; RPE1 cells treated with aphidicolin
  TOPBP1, SLX4, and MUS81 foci during interphase: elevated formation of TOPBP1, SLX4, and MUS81 foci during interphase
RPE1 p53-/- cells; RPE1 cells, aphidicolin
  mitotic colocalisation of SLX4, MUS81 or ERCC1 with TOPBP1 in prometaphase: elevated mitotic colocalisation of SLX4, MUS81 or ERCC1 with TOPBP1 in prometaphase
RPE1 p53-/- cells; RPE1 p53-/- cells treated with aphidicolin
  colocalisation between γH2AX and MUS81: The same observation was made for colocalisation between γH2AX and MUS81
RPE1 p53-/- cells; aphidicolin treated RPE1 p53-/- cells
  colocalising γH2AX and SLX4 foci: significant increase in colocalising γH2AX and SLX4 foci
RPE1 p53-/- cells; aphidicolin-treated RPE1 cells compared to control
  MDC1 foci formation in mitosis: elevated MDC1 foci formation in mitosis

## O=C(O)Cc1c[nH]c2ccccc12 [IAA, Indole-3-acetic acid]
[1]; 500 µM IAA, 2 h, 40 ng/ml nocodazole, three independent experiments
  MUS81 foci formation in prometaphase after acute TOPBP1 degradation: near total abolishment of MUS81 foci formation in prometaphase
[1]; IAA-induced degradation of TOPBP1 in G2/M, release into mitosis
  anaphase abnormalities after acute TOPBP1 degradation: marked increase in anaphase abnormalities

## Cc1cccc(N(C)C(=O)[C@@H]2[C@H](O)CCN2c2nc(C)cc(C(F)(F)F)c2C#N)c1 [Polθi]
DLD1 BRCA2-/- cells
  proliferation, DLD1 BRCA2-/- cells depleted of SLX4: broadly similar loss of proliferative capacity compared to the single depletion of CIP2A alone
RPE1 p53-/- FRT/TR cells
  micronuclei formation, WT cells: increase in micronuclei formation
